Measured values: article PMC5489165, “Identification of benzazole compounds that induce HIV-1 transcription” (PLoS ONE, 2017)
Like-named read-outs stand apart in the source and are kept apart here.

Key:
[1] = Microsome assay, human liver microsomes; format: in vitro ADME
Procedure: Human and mouse liver microsomes were obtained from XenoTech, LLC (Kansas City, KS). The reaction mixture was composed of liver microsomes (0.5 mg/mL), 20 mM Tris-HCl pH 7.4, 2.5 mM MgCl2, and an NADPH generating system (0.1 mM NADP, 1.2 mM glucose-6-phosphate and 0.3 units/ml glucose-6-phophate dehydrogenase). […] Test compounds were added to the microsome reaction and loss of parent molecule was monitored after 1 h by LC/MS/MS.

[2] = test system: HeLa nuclear extracts, HDAC1, HDAC2, HDAC3, HDAC8; assay: HDAC inhibition assay (fluorometric); format: biochemical; conditions: 10 μM
Procedure: HDAC inhibition was determined using HDAC Fluorometric Activity Assay/Drug Discovery Kit (BIOMOL International, Inc.) according to the manufacturer’s recommendations. HeLa cell nuclear extracts and purified HDACs 1, 2, 3, and 8 were obtained from BIOMOL. Briefly, HDAC inhibitors and test compounds were diluted to 5× concentration in assay buffer in a white, flat-bottom 96-well plate. HDAC samples (purified HDAC or HeLa nuclear extract) were diluted to the desired concentration in assay buffer and added to each well. HeLa extract was employed at a 150-fold dilution, while individual HDACs were tested at 0.3–9 μg/ml. Fluor de Lys™ substrate was diluted to 2× concentration in assay buffer and the HDAC reaction was initiated by addition of substrate to each well followed by incubation for 60 min at room temperature. A final concentration of 0.4% DMSO and 50 μM Fluor de Lys™ substrate was present in all samples. Samples with no enzyme were used as blanks and vehicle-only samples were used as negative controls. HDAC reactions were quenched by adding Fluor de Lys™ developer containing 2 μM trichostatin A. Plates were incubated at room temperature for 15 min prior to reading fluorescence for 0.1 s with an excitation wavelength of 360 nm and emission of 460 nm using a 5 nm slit on a Cary Eclipse Fluorescence Spectrophotometer (Varian, Inc.). […]

[3] = test system: Epstein-Barr virus (EBV) in Raji cells; assay: EBV activation assay in Raji cells (BZLF1 qRT-PCR); format: cell-based
[4] = Pharmacokinetics in CD-1 mice; format: in vivo; conditions: mouse, 10 mg/kg, PO
Procedure: All animal studies were performed in compliance with IACUC approved protocols at AAALAC-certified animal facilities. Pharmacokinetics of test compounds were evaluated in CD-1 mice (Charles River Laboratories, Wilmington, MA). Compounds were formulated as a suspension in 0.5% hydroxypropylmethyl cellulose with 0.1% Tween 80 and administered by gavage at a dose of 10 mg/kg. […] Mice were anaesthetized with CO2 followed by terminal exsanguination as per the Guide for the Care and Use of Laboratory Animals. Blood was collected by terminal cardiac puncture at 1, 2, 4, 7, 16, and 24 h post-dose (3 mice per time point), and centrifuged to collect plasma. Brain tissue was collected at the time of blood collection and homogenized in water. The concentrations of test compound in plasma and brain tissue were quantified by liquid chromatography-tandem mass spectrometry (LC-MS/MS). Briefly, the plasma and tissue homogenate samples were treated with an acetonitrile-methanol mixture containing an internal standard that is a close structural analog of the test compounds. The treated plasma and brain homogenate samples were centrifuged and the supernatant was collected and analyzed using electro-spray LC-MS/MS.

[5] = Cytotoxicity assay in SupT1 cells (ATP, CellTiter-Glo); format: cell-based; conditions: human; for selectivity ratio at 72 h: read-out: Selective window, CC50 versus EC2X
Procedure: SupT1 cells were plated at 100,000 per well in 96-well, white-walled plates with serial dilutions of test compound in a total volume of 100 μl RPMI-1640 medium containing 10% FBS and 0.5% DMSO. PBMCs were plated similarly at 50,000 cells/well and stimulated by addition of 40 μg/ml PHA and 80 ng/ml interleukin-2 (IL-2). Cells were incubated for 72 h at 37°C, 5% CO2. ATP was quantified using the CellTiter-Glo Luminescent Cell Viability Assay (Promega, Madison, WI) on a ViewLux microplate imager (Perkin Elmer, Waltham, MA). Percent cytotoxicity was determined relative to vehicle-only treated wells.

[6] = test system: HIV-1 transcription in 24STNLSG cells; assay: SEAP assay in 24STNLSG cells (latency reactivation); format: cell-based; conditions: 72 h; for Max. fold induction, 24STNLSG: SEAP reporter; for EC2X, 24STNLSG: concentration for 2-fold increase in SEAP activity
Procedure: SupT1-derived 24STNLSG cells were plated at 100,000 cells/well in black bottom/black walled 96-well plates in 50 μl RPMI-1640 medium (without phenol red) containing 10% FBS. Compound was added in 50 μl of identical medium using three-fold dose-response dilutions, in duplicate. […] TNF-α, a nuclear factor-κB (NF-κB) activator known to induce HIV- expression in cellular models, was used as a positive control. Plates were incubated for 72 h at 37°C, 5% CO2. Plates were then sealed and heated to 65°C for 30 min. Plates were brought to room temperature and 50 μl assay buffer (1 mM MgCl2, 10 mM L-homoarginine, 1 M diethylamine hydrochloride) was added to each well and incubated for 5 min at room temperature. To each well, 50 μl of CSPD Substrate (0.4 mM Ready-to-Use with Sapphire-II Enhancer; Applied Biosystems, Foster City, CA) was added. Plates were incubated for 20 min at room temperature and read on a ViewLux microplate imager (Perkin Elmer, Waltham, MA). Curves were fit by non-linear regression using Prism software (GraphPad, San Diego, CA).

[7] = Protein binding, mouse plasma (ultrafiltration); format: in vitro ADME; conditions: mouse, plasma, pH 7.4
Procedure: Binding of test compound to plasma proteins was estimated by incubation of test compounds with mouse or human plasma. Human plasma was obtained from BioreclamationIVT (Westbury, NY). […] After a 15 min incubation at 37°C, triplicate aliquots of the incubation mixtures were transferred to a Millipore Multiscreen Ultracel-10 filter plate (10 kDa molecular mass cut off, EMD Millipore, Billerica, MA). The plate was centrifuged for 60 min at 3000 × g and 37°C. After centrifugation, aliquots of both the ultrafiltrates as well as the incubation mixtures prior to ultrafiltration were analyzed by LC-MS/MS to quantify the concentrations of test compound and reference compounds.

[8] = CD-1, brain, read-out: AUC0-24, brain
[9] = CD-1, plasma, read-out: AUC0-24, plasma
[10] = SupT1 cells, ATP quantification, 72 h, read-out: CC50, SupT1

Row | SMILES | HLM stability (% loss of parent compound at 1 h) [1] [%] | HDAC inhibitory activity (in words) [2] | Effect on BLZF1 mRNA (EBV) ([3]; Raji cells, 24 h, up to 100 μM) | AUC(0-t) [4, 8] [µM·h] | Cmax ([4]; CD-1, plasma) [nM] | AUC(0-t) [4, 9] [µM·h] | Cmax, brain [4] [µM] | CC50 at 72 h [5, 10] [µM] | selectivity ratio at 72 h ([5]; SupT1 cells, with regards to respective EC2X (SEAP reporter)) | CC50 at 72 h ([5]; T cells (SupT1) and PBMCs, read-out: CC50 across cytotoxicity assays) [µM] | Max. fold induction, 24STNLSG [6] | Max. fold induction, 24STNLSG ([6]; listed as Cmpd 1) [fold] | EC2X, 24STNLSG [6] [µM] | fraction unbound at 15 min, 10 μM [7] | Effect on BLZF1 mRNA (EBV) [3] | selectivity ratio at 72 h ([5]; SupT1 cells)
1 | Nc1ccc2[nH]c(-c3ccc(-c4nc5cc(N)ccc5o4)cc3)nc2c1 [Compound 1, 2-(4-(5-amino-1H-benzimidazol-2-yl)phenyl)benzoxazol-5-amine] | 57 | no HDAC inhibitory activity | little effect | 0.12 | 550 | 2.2 | 0.065 | 5.2 ± 1.1 | ≥ 3 | 5 to 18 | up to 80 fold | 80 | 1.5 ± 0.7 | < 0.03 | – | –
2 | Nc1ccc2[nH]c(-c3ccc(-c4nc5ccc(N)cc5o4)cc3)nc2c1 [Compound 2] | 61 | no HDAC inhibitory activity | – | 0.054 | 180 | 0.92 | 0.054 | > 100 | – | – | 76 fold | – | 2.7 ± 2.3 | < 0.025 | little effect | ≥ 3
